Measurements: paper PMC11423305, “Structure-Based Design of CBP/EP300 Degraders: When Cooperativity Overcomes Affinity” (JACS Au, 2024)

Target: T1, CBP-BRD:CRBN thalidomide binding domain ternary complex (Homo sapiens, UniProt Q92793+Q96SW2)
T1 construct: GST-CBP (human, residues 1081-1197); the C-terminus of CRBN (human, residues 318-442); His6 with TEV cleavage site (N, cleaved yes); made in house; host or cells: Rosetta (DE3) cells (E. coli)
Assay: TR-FRET CBP-BRD:PROTAC:CRBN ternary complex formation
Protocol: (PMSF), and 1 mM EDTA) and lysed by sonication. The lysates were clarified by centrifugation (18,000 rpm, 4 °C, 1 h).
For GST-CBP the soluble proteins were loaded onto a column packed with glutathione sepharose 4B (GE Healthcare) and subsequently eluted with 10 mM reduced glutathione in buffer containing 20 mM Tris-HCl pH 8.0, and 150 mM NaCl. Finally, a size exclusion step (HiLoad 16/600 Superdex 200 pg column from GE Healthcare) was used to further purify the protein in buffer containing 50 mM HEPES pH 7.5 and 150 mM NaCl. For His-CRBN and His-CRBN-Avi(biotin), the soluble fractions were loaded onto the HisTrap FF crude column (GE Healthcare) and washed with lysis buffer supplemented with 50 mM imidazole. The proteins were eluted with a buffer containing 250 mM imidazole, 100 mM Tris-HCl pH 8.0 and 500 mM NaCl. For His-CRBN-Avi(biotin) only, recombinant TEV protease was used to cleave the His6-tag during overnight dialysis at 4 °C against buffer containing 100 mM Tris-HCl pH 8.0 and 500 mM NaCl. The dialyzed sample was passed through the HisTrap FF crude column to remove His6-tagged TEV protease and uncleaved protein. […]
The maximal control contained no PROTAC, the blank contained no SK-20 and no PROTAC – these were replaced by the appropriate buffer. […] The samples were incubated for 3 h (20 °C, dark) and the signal was detected using the Infinite M1000 plate reader (Tecan). After excitation at 317 nm, emission at 620 and 665 nm was recorded. […]
were determined according to the following equation:
activity (%) = ΔF ∗ 100 = F−Fb ∗ 100 , where Ft is the TR-FRET signal in the absence of any compound (maximal control, 100 % activity), Fb the TR-FRET signal in the absence of the GST -CBP (blank, 0 % activity) and F the TR -FRET signal in the presence of the compound. Dose -response curves were plotted in GraphPad Prism 10.2.3 and fitted with nonlinear regression “log(inhibitor) vs. normalized response – variable slope”, from which IC 50 values were determined. […]

T1 sequence (Q92793 1081-1197): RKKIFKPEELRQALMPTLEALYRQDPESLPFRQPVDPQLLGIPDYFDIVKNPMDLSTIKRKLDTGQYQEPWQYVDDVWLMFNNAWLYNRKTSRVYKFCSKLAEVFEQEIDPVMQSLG
T1 sequence (Q96SW2 318-442): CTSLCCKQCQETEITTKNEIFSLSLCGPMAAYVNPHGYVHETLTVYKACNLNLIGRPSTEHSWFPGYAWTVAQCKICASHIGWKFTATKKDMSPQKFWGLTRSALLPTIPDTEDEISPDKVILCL

ternary complex formation (TR-FRET) (CBP-BRD and CRBN-thalidomide binding domain labeled with TR-FRET pair): robust formation of the ternary complex
PROTAC concentration at peak of hook curve (TR-FRET ternary complex): around 1 μM
Structure (SMILES): Cc1cc2c(NC(=O)c3cc(NC(=O)CCCCCCCCCCNc4cccc5c4C(=O)N(C4CCC(=O)NC4=O)C5=O)cc(-c4ccn(C)n4)c3)cccc2nn1 (centres unmarked) [dCE-2]
